For orientation: IC50 means the point on the concentration scale where inhibition reaches its midpoint. High values mean lower potency, low ones higher potency.

In the assay the target is T1, Human ATX protein (Homo sapiens, UniProt Q13822).
T1 construct: made in house
Put plainly: ATX biochemical FRET assay with FS-3 substrate. The settings on record: FS-3 2 μM, ATX 1.0 μg/mL, room temperature 2 hours, fluorescence 485/538 nm. The method, boiled down:
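Purified human ATX (1.0 μg/mL final) preincubated with compound 30 min at room temperature in Tris pH 7.4 buffer with NaCl, KCl, CaCl2, MgCl2 and 1 mg/mL fatty acid-free BSA. FS-3 added to 2 μM final; 2 h at room temperature in the dark, fluorescence at ex 485/em 538 nm.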

Each structure is given as a SMILES string.

`CC[C@H]1CC[C@@H](Oc2ccc3cc(C(=O)N4C5CCC4CC(C(=O)O)C5)ccc3c2Cl)CC1` (stereo partly drawn) [Example 215, 8-(5-chloro-6-((cis-4-ethylcyclohexyl)oxy)-2-naphthoyl)-8-azabicyclo[3.2.1]octane-3-carboxylic acid] had an IC50 of no more than 500 nM. In the case of `CC(c1ccc2c(C(F)(F)F)c(O[C@H]3CC[C@@H](C(C)(F)F)CC3)ccc2c1)N1C2CCC1CC(C(=O)O)C2` (stereo partly drawn) [Example 216, 8-(1-(6-((cis-4-(1,1-difluoroethyl)cyclohexyl)oxy)-5-(trifluoromethyl)naphthalen-2-yl)ethyl)-8-azabicyclo[3.2.1]octane-3-carboxylic acid] it was no more than 100 nM.

For the molecule `CC(c1ccc2c(C(F)(F)F)c(O[C@H]3CC[C@@H](C(C)(F)F)CC3)ccc2c1)N1C2CCCC1CC(C(=O)O)C2` (stereo partly drawn) [Example 217, 9-(1-(6-((cis-4-(1,1-difluoroethyl)cyclohexyl)oxy)-5-(trifluoromethyl)naphthalen-2-yl)ethyl)-9-azabicyclo[3.3.1]nonane-3-carboxylic acid], the 50% inhibitory concentration (IC50) was no more than 100 nM.

With `C[C@H]1CC[C@@H](Oc2ccc3cc(C(=O)N4C5CCCC4CC(C(=O)O)C5)ccc3c2C#N)CC1` (stereo partly drawn) [Example 218, 9-(5-cyano-6-((cis-4-methylcyclohexyl)oxy)-2-naphthoyl)-9-azabicyclo[3.3.1]nonane-3-carboxylic acid], the IC50 was no more than 100 nM.

On to `C[C@H]1CC[C@@H](Oc2ccc3cc(C(=O)N4C5CCC4CC(C(=O)O)C5)ccc3c2C#N)CC1` (stereo partly drawn) [Example 219, 8-(5-cyano-6-((cis-4-methylcyclohexyl)oxy)-2-naphthoyl)-8-azabicyclo[3.2.1]octane-3-carboxylic acid], for which the 50% inhibitory concentration (IC50) is no more than 100 nM. The figure for `CCC(c1ccc2c(C#N)c(O[C@H]3CC[C@@H](CC)CC3)ccc2c1)N1C2CCC1CC(C(=O)O)C2` (stereo partly drawn) [Example 220, 8-(1-(5-cyano-6-((cis-4-ethylcyclohexyl)oxy)naphthalen-2-yl)propyl)-8-azabicyclo[3.2.1]octane-3-carboxylic acid] is no more than 100 nM; for `CC[C@H]1CC[C@@H](Oc2ccc3cc(C(=O)N4C5CCCC4CC(C(=O)O)C5)ccc3c2C#N)CC1` (stereo partly drawn) [Example 221, 9-(5-cyano-6-((cis-4-ethylcyclohexyl)oxy)-2-naphthoyl)-9-azabicyclo[3.3.1]nonane-3-carboxylic acid] it is no more than 100 nM; for `CC[C@H]1CC[C@@H](Oc2ccc3cc(C(=O)N4C5CCC4CC(C(=O)O)C5)ccc3c2C(F)(F)F)CC1` (stereo partly drawn) [Example 222, 8-(6-((cis-4-ethylcyclohexyl)oxy)-5-(trifluoromethyl)-2-naphthoyl)-8-azabicyclo[3.2.1]octane-3-carboxylic acid] it is no more than 100 nM. The figure for `CC[C@H]1CC[C@@H](Oc2ccc3cc(C(=O)N4C5CCC4CC(C(=O)O)C5)ccc3c2C#N)CC1` (stereo partly drawn) [Example 223, 8-(5-cyano-6-((cis-4-ethylcyclohexyl)oxy)-2-naphthoyl)-8-azabicyclo[3.2.1]octane-3-carboxylic acid] is no more than 100 nM; for `CC[C@H]1CC[C@@H](Oc2ccc3cc(C(=O)N4C5CCCC4CC(C(=O)O)C5)ccc3c2C(F)(F)F)CC1` (stereo partly drawn) [Example 224, 9-(6-((cis-4-ethylcyclohexyl)oxy)-5-(trifluoromethyl)-2-naphthoyl)-9-azabicyclo[3.3.1]nonane-3-carboxylic acid] it is no more than 100 nM; for `CC(c1ccc2c(C#N)c(O[C@H]3CC[C@@H](C)CC3)ccc2c1)N1C2CCCC1CC(C(=O)O)C2` (stereo partly drawn) [Example 225, 9-(1-(5-cyano-6-((cis-4-methylcyclohexyl)oxy)naphthalen-2-yl)ethyl)-9-azabicyclo[3.3.1]nonane-3-carboxylic acid] it is no more than 100 nM. The figure for `CCC(c1ccc2c(C#N)c(O[C@H]3CC[C@@H](C)CC3)ccc2c1)N1C2CCC1CC(C(=O)O)C2` (stereo partly drawn) [Example 226, 8-(1-(5-cyano-6-((cis-4-methylcyclohexyl)oxy)naphthalen-2-yl)propyl)-8-azabicyclo[3.2.1]octane-3-carboxylic acid] is no more than 100 nM; for `CC[C@H]1CC[C@@H](Oc2ccc3cc(C(=O)N4C5CCCC4CC(C(=O)O)C5)ccc3c2Cl)CC1` (stereo partly drawn) [Example 227, 9-(5-chloro-6-((cis-4-ethylcyclohexyl)oxy)-2-naphthoyl)-9-azabicyclo[3.3.]nonane-3-carboxylic acid] it is no more than 100 nM.

The molecule `CC(c1ccc2c(C#N)c(O[C@H]3CC[C@@H](C(F)(F)F)CC3)ccc2c1)N1C2CCCC1CC(C(=O)O)C2` (some centres unmarked) [Example 228, 9-(1-(5-cyano-6-(((1s,4s)-4-(trifluoromethyl)cyclohexyl)oxy)naphthalen-2-yl)ethyl)-9-azabicyclo[3.3.1]nonane-3-carboxylic acid] yielded a half-maximal inhibitory concentration (IC50) of no more than 100 nM. Take `N#Cc1c(O[C@H]2CC[C@@H](C(F)(F)F)CC2)ccc2cc(CN3C4CCCC3CC(C(=O)O)C4)ccc12` (stereo partly drawn) [Example 229, 9-((5-cyano-6-((cis-4-(trifluoromethyl)cyclohexyl)oxy)naphthalen-2-yl)methyl)-9-azabicyclo[3.3.1]nonane-3-carboxylic acid]: the IC50 was no more than 100 nM. `O=C(O)C1CC2CCCC(C1)N2Cc1ccc2c(C(F)(F)F)c(N[C@H]3CC[C@@H](C(F)(F)F)CC3)ccc2c1` (stereo partly drawn) [Example 230, 9-((5-(trifluoromethyl)-6-((cis-4-(trifluoromethyl)cyclohexyl)amino)naphthalen-2-yl)methyl)-9-azabicyclo[3.3.1]nonane-3-carboxylic acid] yielded an IC50 of no more than 100 nM. In the case of `COC(=O)C1CC2CCC(C1)N2C(=O)c1ccc2c(C(F)(F)F)c(N[C@H]3CC[C@@H](C(F)(F)F)CC3)ccc2c1` (stereo partly drawn) [Example 231, methyl 8-(5-(trifluoromethyl)-6-((cis-4-(trifluoromethyl)cyclohexyl)amino)-2-naphthoyl)-8-azabicyclo[3.2.1]octane-3-carboxylate] it was no more than 250 nM; in that of `CC(c1ccc2c(Cl)c(O[C@H]3CC[C@@H](C(F)(F)F)CC3)ccc2c1)N1C2CCC1CC(C(=O)O)C2` (stereo partly drawn) [Example 234, 8-(1-(5-chloro-6-((cis-4-(trifluoromethyl)cyclohexyl)oxy)naphthalen-2-yl)ethyl)-8-azabicyclo[3.2.1]octane-3-carboxylic acid], no more than 100 nM; in that of `CC(c1ccc2c(Cl)c(O[C@H]3CC[C@@H](C(F)(F)F)CC3)ccc2c1)N1C2CCCC1CC(C(=O)O)C2` (stereo partly drawn) [Example 235, 9-(1-(5-chloro-6-((cis-4-(trifluoromethyl)cyclohexyl)oxy)naphthalen-2-yl)ethyl)-9-azabicyclo[3.3.1]nonane-3-carboxylic acid], no more than 100 nM. In the case of `CCC(c1ccc2c(Cl)c(O[C@H]3CC[C@@H](CC)CC3)ccc2c1)N1C2CCC1CC(C(=O)O)C2` (stereo partly drawn) [Example 236, 8-(1-(5-chloro-6-((cis-4-ethylcyclohexyl)oxy)naphthalen-2-yl)propyl)-8-azabicyclo[3.2.1]octane-3-carboxylic acid] it was no more than 100 nM; in that of `CCC(c1ccc2c(Cl)c(O[C@H]3CC[C@@H](CC)CC3)ccc2c1)N1C2CCCC1CC(C(=O)O)C2` (stereo partly drawn) [Example 237, 9-(1-(5-chloro-6-((cis-4-ethylcyclohexyl)oxy)naphthalen-2-yl)propyl)-9-azabicyclo[3.3.1]nonane-3-carboxylic acid], no more than 250 nM. In the case of `COC(=O)C1CC2CCCC(C1)N2C(=O)c1ccc2c(C(F)(F)F)c(N[C@H]3CC[C@@H](C(F)(F)F)CC3)ccc2c1` (stereo partly drawn) [Example 244, methyl 9-(5-(trifluoromethyl)-6-((cis-4-(trifluoromethyl)cyclohexyl)amino)-2-naphthoyl)-9-azabicyclo[3.3.1]nonane-3-carboxylate] it was no more than 100 nM. In the case of `O=C(O)C1CC2CCCC(C1)N2C(=O)c1ccc2c(C(F)(F)F)c(N[C@H]3CC[C@@H](C(F)(F)F)CC3)ccc2c1` (stereo partly drawn) [Example 245, 9-(5-(trifluoromethyl)-6-((cis-4-(trifluoromethyl)cyclohexyl)amino)-2-naphthoyl)-9-azabicyclo[3.3.1]nonane-3-carboxylic acid], the IC50 was no more than 100 nM. In the case of `CC(C)(C)[C@H]1CC[C@H](Nc2ncc3cc(C(=O)N4C5CCC4CC(C(=O)O)C5)ccc3n2)CC1` (stereo partly drawn) [Example 262, 8-(2-((trans-4-(tert-butyl)cyclohexyl)amino)quinazoline-6-carbonyl)-8-azabicyclo[3.2.1]octane-3-carboxylic acid] it was no more than 100 nM; in that of `C[C@H]1CC[C@H](Nc2cc3ccc(C(=O)N4C5CCCC4CC(C(=O)O)C5)cc3cn2)CC1` (stereo partly drawn) [Example 263, 9-(3-((trans-4-methylcyclohexyl)amino)isoquinoline-7-carbonyl)-9-azabicyclo[3.3.1]nonane-3-carboxylic acid], no more than 500 nM; in that of `C[C@H]1CC[C@H](Nc2cc3ccc(C(=O)N4C5CCC4CC(C(=O)O)C5)cc3cn2)CC1` (stereo partly drawn) [Example 264, 8-(3-((trans-4-methylcyclohexyl)amino)isoquinoline-7-carbonyl)-8-azabicyclo[3.2.1]octane-3-carboxylic acid], no more than 500 nM. The figure for `C[C@H]1CC[C@@H](Nc2ncc3cc(CN4C5CCCC4CC(C(=O)O)C5)ccc3c2Cl)CC1` (stereo partly drawn) [Example 271, 9-((4-chloro-3-((cis-4-methylcyclohexyl)amino)isoquinolin-7-yl)methyl)-9-azabicyclo[3.3.1]nonane-3-carboxylic acid] is no more than 500 nM. In turn, `CC(C)(C)[C@H]1CC[C@@H](Nc2ncc3cc(C(=O)N4C5CCC4CC(C(=O)O)C5)ccc3c2Cl)CC1` (stereo partly drawn) [Example 272, 8-(3-((cis-4-(tert-butyl)cyclohexyl)amino)-4-chloroisoquinoline-7-carbonyl)-8-azabicyclo[3.2.1]octane-3-carboxylic acid] showed a half-maximal inhibitory concentration (IC50) of no more than 250 nM. The figure for `O=C(O)C1CC2CCCC(C1)N2Cc1cc2ccc(O[C@H]3CC[C@@H](C(F)(F)F)CC3)c(Br)c2cn1` (stereo partly drawn) [Example 274, 9-((8-bromo-7-((cis-4-(trifluoromethyl)cyclohexyl)oxy)isoquinolin-3-yl)methyl)-9-azabicyclo[3.3.1]nonane-3-carboxylic acid] is no more than 250 nM.

The record behind these values is patent publication US9944666B2, “Compounds that are S1P modulating agents and/or ATX modulating agents” (BIOGEN MA INC., priority 2012, dated 2018).
